pIC50: −log10 of the molar value. Where a name gives a salt, the structure may show the parent alone.
System: KRas G12D-mediated phosphorylation of ERK
Experiment: Inhibition of KRas G12D-mediated phosphorylation of ERK in AGS cells
Assay type: cell-based
Details: Homo sapiens; AGS cells expressing G12D, 3 hours, phospho-ERK normalized to GAPDH
Method in brief: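 In-cell Western: p-ERK Thr202/Tyr204 signal over GAPDH, as % of DMSO control, with IC50 from a 4-parameter curve. AGS cells seeded 40,000/well for 12-14 h, exposed to compound 3 h at 0.5% DMSO final, then formaldehyde-fixed and methanol-permeabilized.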

Structure (SMILES) | pIC50
Fc1cccc(-c2ncc3c(N4C[C@H]5CC[C@@H](C4)N5)nc(OCC45CCCN4CCC5)nc3c2F)c1OC(F)F [Example 302, 4-((1R,5S)-3,8-diazabicyclo[3.2.1]octan-3-yl)-7-(2-(difluoromethoxy)-3-fluorophenyl)-8-fluoro-2-((hexahydro-1H-pyrrolizin-7a-yl)methoxy)pyrido[4,3-d]pyrimidine] | 5.70
CN1CCC[C@H]1COc1nc(N2CC3CCC(C=O)(C2)N3)c2cnc(-c3cc(O)cc4ccccc34)c(F)c2n1 (stereo partly drawn) [Example 214, 3-(8-fluoro-7-(3-hydroxynaphthalen-1-yl)-2-(((S)-1-methylpyrrolidin-2-yl)methoxy)pyrido[4,3-d]pyrimidin-4-yl)-3,8-diazabicyclo[3.2.1]octane-1-carbaldehyde] | < 4.78
Fc1c(-c2cccc(Cl)c2Cl)ncc2c(N3C[C@H]4CC[C@@H](C3)N4)nc(OCC34CCCN3CCC4)nc12 [Example 277, 4-((1R,5S)-3,8-diazabicyclo[3.2.1]octan-3-yl)-7-(2,3-dichlorophenyl)-8-fluoro-2-((hexahydro-1H-pyrrolizin-7a-yl)methoxy)pyrido[4,3-d]pyrimidine] | 5.43
Oc1cc(-c2ncc3c(N4C[C@H]5CC[C@@H](C4)N5)nc(OCC(F)(F)F)nc3c2F)c2ccccc2c1 [Example 48, 4-(4-((1R,5S)-3,8-diazabicyclo[3.2.1]octan-3-yl)-8-fluoro-2-(2,2,2-trifluoroethoxy)pyrido[4,3-d]pyrimidin-7-yl)naphthalen-2-ol] | 5.31
Fc1c(-c2c(C(F)(F)F)ccc3[nH]ncc23)ncc2c(N3CC4CCC(C3)N4)nc(OCC34CCCN3C[C@H](F)C4)nc12 (mixture of isomers) [Example 343, 4-((1R,5S)-3,8-diazabicyclo[3.2.1]octan-3-yl)-8-fluoro-2-((2-fluorotetrahydro-1H-pyrrolizin-7a(5H)-yl)methoxy)-7-(5-(trifluoromethyl)-1H-indazol-4-yl)pyrido[4,3-d]pyrimidine] | 5.79
Fc1c(-c2cccc3cccc(F)c23)ncc2c(N3C[C@H]4CC[C@@H](C3)N4)nc(OCC34CCCN3CCC4)nc12 [Example 234, 4-((1R,5S)-3,8-diazabicyclo[3.2.1]octan-3-yl)-8-fluoro-7-(8-fluoronaphthalen-1-yl)-2-((tetrahydro-1H-pyrrolizin-7a(5H)-yl)methoxy)pyrido[4,3-d]pyrimidine] | 6.39
Oc1ccc(C(F)(F)F)c(-c2ncc3c(N4C[C@H]5CC[C@@H](C4)N5)nc(OCC45CCCN4CCC5)nc3c2F)c1 [Example 373, 3-(4-((1R,5S)-3,8-diazabicyclo[3.2.1]octan-3-yl)-8-fluoro-2-((tetrahydro-1H-pyrrolizin-7a(5H)-yl)methoxy)pyrido[4,3-d]pyrimidin-7-yl)-4-(trifluoromethyl)phenol] | < 4.78
Fc1c(-c2cccc3cccc(-c4c[nH]nn4)c23)ncc2c(N3C[C@H]4CC[C@@H](C3)N4)nc(OCC34CCCN3CCC4)nc12 [Example 180, 7-(8-(1H-1,2,3-triazol-4-yl)naphthalen-1-yl)-4-((1R,5S)-3,8-diazabicyclo[3.2.1]octan-3-yl)-8-fluoro-2-((hexahydro-1H-pyrrolizin-7a-yl)methoxy)pyrido[4,3-d]pyrimidine] | < 4.78
CC1CCc2cccc(-c3ncc4c(N5CC6CCC(C5)N6)nc(OC[C@@]56CCCN5C[C@H](F)C6)nc4c3F)c21 (stereo partly drawn) [Example 429, 4-(3,8-diazabicyclo[3.2.1]octan-3-yl)-8-fluoro-2-(((2R,7aS)-2-fluorotetrahydro-1H-pyrrolizin-7a(5H)-yl)methoxy)-7-(3-methyl-2,3-dihydro-1H-inden-4-yl)pyrido[4,3-d]pyrimidine] | 5.77
Cc1ccc(O)cc1-c1ncc2c(N3C[C@H]4CC[C@@H](C3)N4)nc(OCC34CCCN3CCC4)nc2c1F [Example 256, 3-(4-((1R,5S)-3,8-diazabicyclo[3.2.1]octan-3-yl)-8-fluoro-2-((hexahydro-1H-pyrrolizin-7a-yl)methoxy)pyrido[4,3-d]pyrimidin-7-yl)-4-methylphenol] | < 4.78
Fc1c(-c2ccccc2OC(F)(F)F)ncc2c(N3C[C@H]4CC[C@@H](C3)N4)nc(OCC34CCCN3CCC4)nc12 [Example 229, 4-((1R,5S)-3,8-diazabicyclo[3.2.1]octan-3-yl)-8-fluoro-2-((tetrahydro-1H-pyrrolizin-7a(5H)-yl)methoxy)-7-(2-(trifluoromethoxy)phenyl)pyrido[4,3-d]pyrimidine bis-hydrochloride] | 4.95
Oc1cc(-c2ncc3c(N4C[C@H]5CC[C@@H](C4)N5)nc(OCC4(C(F)(F)F)CC4)nc3c2F)c2ccccc2c1 [Example 51, 4-(4-((1R,5S)-3,8-diazabicyclo[3.2.1]octan-3-yl)-8-fluoro-2-((1-(trifluoromethyl)cyclopropyl)methoxy)pyrido[4,3-d]pyrimidin-7-yl)naphthalen-2-ol] | 4.92
Cc1c(Cl)cc2[nH]ncc2c1-c1ncc2c(N3CC4CCC(C3)N4)nc(OC[C@@]34CCCN3C[C@H](F)C4)nc2c1F (stereo in doubt) [Example 401, 4-((1R,5S)-3,8-diazabicyclo[3.2.1]octan-3-yl)-7-(6-chloro-5-methyl-1H-indazol-4-yl)-8-fluoro-2-((2-fluorotetrahydro-1H-pyrrolizin-7a(5H)-yl)methoxy)pyrido[4,3-d]pyrimidine] | 6.22
Oc1cc(-c2ncc3c(N4C[C@H]5CC[C@@H](C4)N5)nc(OCC(F)(F)C(F)F)nc3c2F)c2ccccc2c1 [Example 52, 4-(4-((1R,5S)-3,8-diazabicyclo[3.2.1]octan-3-yl)-8-fluoro-2-(2,2,3,3-tetrafluoropropoxy)pyrido[4,3-d]pyrimidin-7-yl)naphthalen-2-ol] | 5.08
CN1CCC[C@H]1COc1nc(N2C[C@H]3CC[C@@H](C2)N3)c2cnc(-c3cccc4c3C(C)(C)CC4)c(F)c2n1 [Example 161, 4-((1R,5S)-3,8-diazabicyclo[3.2.1]octan-3-yl)-7-(3,3-dimethyl-2,3-dihydro-1H-inden-4-yl)-8-fluoro-2-(((S)-1-methylpyrrolidin-2-yl)methoxy)pyrido[4,3-d]pyrimidine bis(2,2,2-trifluoroacetate)] | < 4.78
CC(C)c1c(Cl)cc(O)cc1-c1ncc2c(N3C[C@H]4CC[C@@H](C3)N4)nc(OC[C@@]34CCCN3C[C@H](F)C4)nc2c1F [Example 291, 3-(4-((1R,5S)-3,8-diazabicyclo[3.2.1]octan-3-yl)-8-fluoro-2-(((2R,7aS)-2-fluorohexahydro-1H-pyrrolizin-7a-yl)methoxy)pyrido[4,3-d]pyrimidin-7-yl)-5-chloro-4-isopropylphenol] | 7.33
OCC(CO)COc1nc(N2C[C@H]3CC[C@@H](C2)N3)c2cnc(-c3cccc4cccc(Cl)c34)c(F)c2n1 [Example 35, 2-(((4-((1R,5S)-3,8-diazabicyclo[3.2.1]octan-3-yl)-7-(8-chloronaphthalen-1-yl)-8-fluoropyrido[4,3-d]pyrimidin-2-yl)oxy)methyl)propane-1,3-diol] | 4.95
CCc1ccc(O)cc1-c1ncc2c(N3C[C@H]4CC[C@@H](C3)N4)nc(OCC34CCCN3CCC4)nc2c1F [Example 263, 3-(4-((1R,5S)-3,8-diazabicyclo[3.2.1]octan-3-yl)-8-fluoro-2-((hexahydro-1H-pyrrolizin-7a-yl)methoxy)pyrido[4,3-d]pyrimidin-7-yl)-4-ethylphenol] | 5.12
Cc1cccc2cccc(-c3ncc4c(N5C[C@H]6CC[C@@H](C5)N6)nc(OCC56CCCN5CCC6)nc4c3F)c12 [Example 334, 4-((1R,5S)-3,8-diazabicyclo[3.2.1]octan-3-yl)-8-fluoro-7-(8-methylnaphthalen-1-yl)-2-((tetrahydro-1H-pyrrolizin-7a(5H)-yl)methoxy)pyrido[4,3-d]pyrimidine] | 5.54
CC(C)c1c(Cl)cccc1-c1ncc2c(N3C[C@H]4CC[C@@H](C3)N4)nc(OCC34CCCN3CCC4)nc2c1F [Example 298, 4-((1R,5S)-3,8-diazabicyclo[3.2.1]octan-3-yl)-7-(3-chloro-2-isopropylphenyl)-8-fluoro-2-((hexahydro-1H-pyrrolizin-7a-yl)methoxy)pyrido[4,3-d]pyrimidine] | 5.91
Fc1c(-c2cccc3cccc(Cl)c23)ncc2c(N3CC4CCC(C3)N4)nc(OC[C@]34CCCN3C[C@H](c3ccccc3)C4)nc12 (stereo in doubt) [Example 221, 4-((1R,5S)-3,8-diazabicyclo[3.2.1]octan-3-yl)-7-(8-chloronaphthalen-1-yl)-8-fluoro-2-((2-phenyltetrahydro-1H-pyrrolizin-7a(5H)-yl)methoxy)pyrido[4,3-d]pyrimidine bis-hydrochloride salt] | 4.80
CO[C@H]1CN[C@H](COc2nc(N3C[C@H]4CC[C@@H](C3)N4)c3cnc(-c4cccc5cccc(Cl)c45)c(F)c3n2)C1 [Example 351] | < 4.78
CC(Oc1nc(N2C[C@H]3CC[C@@H](C2)N3)c2cnc(-c3cc(O)cc4ccccc34)c(F)c2n1)C1CCCN1C (stereo partly drawn) [Example 27, 4-(4-((1R,5S)-3,8-diazabicyclo[3.2.1]octan-3-yl)-8-fluoro-2-(1-(1-methylpyrrolidin-2-yl)ethoxy)pyrido[4,3-d]pyrimidin-7-yl)naphthalen-2-ol] | 5.89
CN1CCC[C@H]1COc1nc(N2C[C@H]3CC[C@@H](C2)N3)c2cnc(-c3cccc4ccc(F)cc34)c(F)c2n1 [Example 19, 4-((1R,5S)-3,8-diazabicyclo[3.2.1]octan-3-yl)-8-fluoro-7-(7-fluoronaphthalen-1-yl)-2-(((S)-1-methylpyrrolidin-2-yl)methoxy)pyrido[4,3-d]pyrimidine] | < 4.78
Cc1cccc(CCOc2nc(N3C[C@H]4CC[C@@H](C3)N4)c3cnc(-c4cc(O)cc5ccccc45)c(F)c3n2)n1 [Example 87, 4-(4-((1R,5S)-3,8-diazabicyclo[3.2.1]octan-3-yl)-8-fluoro-2-(2-(6-methylpyridin-2-yl)ethoxy)pyrido[4,3-d]pyrimidin-7-yl)naphthalen-2-ol] | 4.98
Oc1cc(-c2ncc3c(N4C[C@H]5CC[C@@H](C4)N5)nc(OC[C@@H]4CCCN4Cc4ccccc4)nc3c2F)c2ccccc2c1 [Example 12, 4-(2-(((S)-1-benzylpyrrolidin-2-yl)methoxy)-4-((1R,5S)-3,8-diazabicyclo[3.2.1]octan-3-yl)-8-fluoropyrido[4,3-d]pyrimidin-7-yl)naphthalen-2-ol] | 5.31

— US11453683B1, “KRas G12D inhibitors” (Mirati Therapeutics, Inc., priority 2019, dated 2022)
